Assay results reported in ChEMBL document CHEMBL4507269, “Data for DCP probe BAY-386” (2021).

Tests used:
[1] = target: Beta-1 adrenergic receptor (Homo sapiens) (UniProt P08588); assay: beta1 (h) Eurofins-Cerep Cellular and Nuclear Receptor Functional Assays; conditions: Compound concentration 10.0 uM
[2] = target: Activin receptor type-1 (Homo sapiens) (UniProt Q04771); conditions: Compound concentration 1000.0 nM
[3] = target: Atypical kinase COQ8B, mitochondrial (Homo sapiens) (UniProt Q96D53); conditions: Compound concentration 1000.0 nM
[4] = target: RAC-alpha serine/threonine-protein kinase (Homo sapiens) (UniProt P31749); conditions: Compound concentration 1000.0 nM
[5] = target: RAC-gamma serine/threonine-protein kinase (Homo sapiens) (UniProt Q9Y243); conditions: Compound concentration 1000.0 nM
[6] = target: Calcium/calmodulin-dependent protein kinase type 1D (Homo sapiens) (UniProt Q8IU85); conditions: Compound concentration 1000.0 nM
[7] = target: Macrophage colony-stimulating factor 1 receptor (Homo sapiens) (UniProt P07333); conditions: Compound concentration 1000.0 nM
[8] = target: Casein kinase I isoform alpha (Homo sapiens) (UniProt P48729); conditions: Compound concentration 1000.0 nM
[9] = target: Serine/threonine-protein kinase DCLK3 (Homo sapiens) (UniProt Q9C098); conditions: Compound concentration 1000.0 nM
[10] = target: Mitogen-activated protein kinase kinase kinase 12 (Homo sapiens) (UniProt Q12852); conditions: Compound concentration 1000.0 nM
[11] = system: Epidermal growth factor receptor (Homo sapiens), P00533 [UNDEFINED MUTATION]; conditions: Compound concentration 1000.0 nM
[12] = target: Ephrin type-A receptor 1 (Homo sapiens) (UniProt P21709); conditions: Compound concentration 1000.0 nM
[13] = system: Receptor-type tyrosine-protein kinase FLT3 (Homo sapiens), P36888 [D835V]; conditions: Compound concentration 1000.0 nM
[14] = system: Receptor-type tyrosine-protein kinase FLT3 (Homo sapiens), P36888 [D835Y]; conditions: Compound concentration 1000.0 nM
[15] = target: Vascular endothelial growth factor receptor 3 (Homo sapiens) (UniProt P35916); conditions: Compound concentration 1000.0 nM
[16] = target: Homeodomain-interacting protein kinase 1 (Homo sapiens) (UniProt Q86Z02); conditions: Compound concentration 1000.0 nM
Homeodomain-interacting protein kinase 1 (Homo sapiens), sequence (Q86Z02 whole entry, looked up): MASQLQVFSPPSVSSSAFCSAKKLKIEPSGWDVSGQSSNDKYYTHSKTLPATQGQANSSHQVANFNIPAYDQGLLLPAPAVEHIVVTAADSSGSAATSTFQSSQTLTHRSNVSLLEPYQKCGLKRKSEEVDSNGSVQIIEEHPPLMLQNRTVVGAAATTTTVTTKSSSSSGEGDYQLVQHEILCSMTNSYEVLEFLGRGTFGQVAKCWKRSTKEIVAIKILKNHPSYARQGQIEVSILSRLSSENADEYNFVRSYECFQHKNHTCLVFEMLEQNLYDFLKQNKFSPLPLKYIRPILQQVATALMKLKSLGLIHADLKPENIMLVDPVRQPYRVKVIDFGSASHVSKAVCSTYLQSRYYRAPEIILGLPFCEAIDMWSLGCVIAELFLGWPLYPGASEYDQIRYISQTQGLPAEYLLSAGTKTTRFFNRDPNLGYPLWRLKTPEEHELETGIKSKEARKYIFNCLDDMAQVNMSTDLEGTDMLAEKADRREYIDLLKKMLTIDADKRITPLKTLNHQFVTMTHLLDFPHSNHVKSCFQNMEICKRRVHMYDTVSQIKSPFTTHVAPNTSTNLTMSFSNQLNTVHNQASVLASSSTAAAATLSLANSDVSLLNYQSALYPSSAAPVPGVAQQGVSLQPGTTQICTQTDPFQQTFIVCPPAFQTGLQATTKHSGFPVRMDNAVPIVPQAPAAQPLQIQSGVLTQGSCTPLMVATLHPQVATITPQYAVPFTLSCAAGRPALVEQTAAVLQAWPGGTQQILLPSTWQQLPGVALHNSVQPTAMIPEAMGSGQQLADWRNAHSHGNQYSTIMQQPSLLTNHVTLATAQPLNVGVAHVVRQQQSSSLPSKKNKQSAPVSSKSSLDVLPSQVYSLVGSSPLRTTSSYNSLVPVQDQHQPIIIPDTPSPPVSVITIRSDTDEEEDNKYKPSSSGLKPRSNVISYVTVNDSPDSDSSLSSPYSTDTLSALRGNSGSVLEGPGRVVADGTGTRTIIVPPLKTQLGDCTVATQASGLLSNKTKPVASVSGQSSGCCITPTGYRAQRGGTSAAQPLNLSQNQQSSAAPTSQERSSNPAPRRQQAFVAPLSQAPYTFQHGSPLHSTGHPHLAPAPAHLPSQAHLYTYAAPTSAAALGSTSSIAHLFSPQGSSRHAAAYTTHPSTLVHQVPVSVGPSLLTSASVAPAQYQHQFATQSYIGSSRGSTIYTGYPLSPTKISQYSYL

[17] = target: Homeodomain-interacting protein kinase 3 (Homo sapiens) (UniProt Q9H422); conditions: Compound concentration 1000.0 nM
[18] = target: Inhibitor of nuclear factor kappa-B kinase subunit epsilon (Homo sapiens) (UniProt Q14164); conditions: Compound concentration 1000.0 nM
Inhibitor of nuclear factor kappa-B kinase subunit epsilon (Homo sapiens), sequence (Q14164 whole entry): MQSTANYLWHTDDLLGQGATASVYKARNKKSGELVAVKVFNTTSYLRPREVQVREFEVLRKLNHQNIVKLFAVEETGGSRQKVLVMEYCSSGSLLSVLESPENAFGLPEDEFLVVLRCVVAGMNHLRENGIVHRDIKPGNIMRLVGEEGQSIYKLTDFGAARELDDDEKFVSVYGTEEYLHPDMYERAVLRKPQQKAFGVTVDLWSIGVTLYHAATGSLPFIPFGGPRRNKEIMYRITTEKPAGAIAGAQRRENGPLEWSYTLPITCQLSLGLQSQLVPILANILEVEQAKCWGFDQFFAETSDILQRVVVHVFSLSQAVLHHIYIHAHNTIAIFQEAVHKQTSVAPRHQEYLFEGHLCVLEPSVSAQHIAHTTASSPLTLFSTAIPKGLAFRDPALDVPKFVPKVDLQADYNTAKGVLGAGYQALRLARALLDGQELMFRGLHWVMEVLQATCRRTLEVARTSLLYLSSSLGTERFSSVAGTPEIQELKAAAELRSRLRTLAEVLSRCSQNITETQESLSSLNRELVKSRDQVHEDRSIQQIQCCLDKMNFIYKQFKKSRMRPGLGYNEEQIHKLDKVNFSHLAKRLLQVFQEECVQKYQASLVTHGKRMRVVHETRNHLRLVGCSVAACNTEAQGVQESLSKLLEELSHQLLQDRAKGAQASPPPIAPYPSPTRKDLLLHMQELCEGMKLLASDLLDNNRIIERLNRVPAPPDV

[19] = target: Insulin receptor (Homo sapiens) (UniProt P06213); conditions: Compound concentration 1000.0 nM
[20] = target: Mast/stem cell growth factor receptor Kit (Homo sapiens) (UniProt P10721); conditions: Compound concentration 1000.0 nM
[21] = target: Tyrosine-protein kinase Lyn (Homo sapiens) (UniProt P07948); conditions: Compound concentration 1000.0 nM
Tyrosine-protein kinase Lyn (Homo sapiens), sequence (P07948 2-512 limits assumed): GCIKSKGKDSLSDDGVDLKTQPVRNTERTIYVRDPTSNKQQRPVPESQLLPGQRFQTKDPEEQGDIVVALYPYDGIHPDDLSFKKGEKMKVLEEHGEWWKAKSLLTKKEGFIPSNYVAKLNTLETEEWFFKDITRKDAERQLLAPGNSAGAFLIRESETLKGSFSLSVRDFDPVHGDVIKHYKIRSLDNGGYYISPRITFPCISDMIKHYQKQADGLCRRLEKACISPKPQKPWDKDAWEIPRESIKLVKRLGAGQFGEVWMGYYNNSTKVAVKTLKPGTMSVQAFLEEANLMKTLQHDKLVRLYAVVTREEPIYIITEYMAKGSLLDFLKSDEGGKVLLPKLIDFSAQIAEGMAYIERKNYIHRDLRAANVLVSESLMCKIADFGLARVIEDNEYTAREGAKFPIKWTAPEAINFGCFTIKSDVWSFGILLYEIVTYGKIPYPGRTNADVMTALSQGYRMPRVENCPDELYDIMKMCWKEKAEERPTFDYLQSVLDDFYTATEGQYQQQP

[22] = target: MAP kinase-activated protein kinase 2 (Homo sapiens) (UniProt P49137); conditions: Compound concentration 1000.0 nM
[23] = target: MAP kinase-activated protein kinase 5 (Homo sapiens) (UniProt Q8IW41); conditions: Compound concentration 1000.0 nM
[24] = target: Dual specificity mitogen-activated protein kinase kinase 4 (Homo sapiens) (UniProt P45985); conditions: Compound concentration 1000.0 nM
[25] = target: Serine/threonine-protein kinase 26 (Homo sapiens) (UniProt Q9P289); conditions: Compound concentration 1000.0 nM
[26] = target: Serine/threonine-protein kinase mTOR (Homo sapiens) (UniProt P42345); conditions: Compound concentration 1000.0 nM
[27] = target: Serine/threonine-protein kinase Nek9 (Homo sapiens) (UniProt Q8TD19); conditions: Compound concentration 1000.0 nM
[28] = target: Mitogen-activated protein kinase 11 (Homo sapiens) (UniProt Q15759); conditions: Compound concentration 1000.0 nM
[29] = target: Serine/threonine-protein kinase PAK 4 (Homo sapiens) (UniProt O96013); conditions: Compound concentration 1000.0 nM
[30] = target: Cyclin-dependent kinase 2 homolog (Plasmodium falciparum (isolate 3D7)) (UniProt P61075); conditions: Compound concentration 1000.0 nM
[31] = target: Phosphatidylinositol 4,5-bisphosphate 3-kinase catalytic subunit gamma isoform (Homo sapiens) (UniProt P48736); conditions: Compound concentration 1000.0 nM
[32] = target: cGMP-dependent protein kinase 1 (Homo sapiens) (UniProt Q13976); conditions: Compound concentration 1000.0 nM
[33] = target: Ribosomal protein S6 kinase alpha-1 (Homo sapiens) (UniProt Q15418); conditions: Compound concentration 1000.0 nM
[34] = target: Ribosomal protein S6 kinase alpha-3 (Homo sapiens) (UniProt P51812); conditions: Compound concentration 1000.0 nM
[35] = target: Uncharacterized serine/threonine-protein kinase SBK3 (Homo sapiens) (UniProt P0C264); conditions: Compound concentration 1000.0 nM
[36] = target: Serine/threonine-protein kinase 16 (Homo sapiens) (UniProt O75716); conditions: Compound concentration 1000.0 nM
[37] = target: STE20/SPS1-related proline-alanine-rich protein kinase (Homo sapiens) (UniProt Q9UEW8); conditions: Compound concentration 1000.0 nM
[38] = target: Serine/threonine-protein kinase TAO1 (Homo sapiens) (UniProt Q7L7X3); conditions: Compound concentration 1000.0 nM
Serine/threonine-protein kinase TAO1 (Homo sapiens), sequence (Q7L7X3 whole entry): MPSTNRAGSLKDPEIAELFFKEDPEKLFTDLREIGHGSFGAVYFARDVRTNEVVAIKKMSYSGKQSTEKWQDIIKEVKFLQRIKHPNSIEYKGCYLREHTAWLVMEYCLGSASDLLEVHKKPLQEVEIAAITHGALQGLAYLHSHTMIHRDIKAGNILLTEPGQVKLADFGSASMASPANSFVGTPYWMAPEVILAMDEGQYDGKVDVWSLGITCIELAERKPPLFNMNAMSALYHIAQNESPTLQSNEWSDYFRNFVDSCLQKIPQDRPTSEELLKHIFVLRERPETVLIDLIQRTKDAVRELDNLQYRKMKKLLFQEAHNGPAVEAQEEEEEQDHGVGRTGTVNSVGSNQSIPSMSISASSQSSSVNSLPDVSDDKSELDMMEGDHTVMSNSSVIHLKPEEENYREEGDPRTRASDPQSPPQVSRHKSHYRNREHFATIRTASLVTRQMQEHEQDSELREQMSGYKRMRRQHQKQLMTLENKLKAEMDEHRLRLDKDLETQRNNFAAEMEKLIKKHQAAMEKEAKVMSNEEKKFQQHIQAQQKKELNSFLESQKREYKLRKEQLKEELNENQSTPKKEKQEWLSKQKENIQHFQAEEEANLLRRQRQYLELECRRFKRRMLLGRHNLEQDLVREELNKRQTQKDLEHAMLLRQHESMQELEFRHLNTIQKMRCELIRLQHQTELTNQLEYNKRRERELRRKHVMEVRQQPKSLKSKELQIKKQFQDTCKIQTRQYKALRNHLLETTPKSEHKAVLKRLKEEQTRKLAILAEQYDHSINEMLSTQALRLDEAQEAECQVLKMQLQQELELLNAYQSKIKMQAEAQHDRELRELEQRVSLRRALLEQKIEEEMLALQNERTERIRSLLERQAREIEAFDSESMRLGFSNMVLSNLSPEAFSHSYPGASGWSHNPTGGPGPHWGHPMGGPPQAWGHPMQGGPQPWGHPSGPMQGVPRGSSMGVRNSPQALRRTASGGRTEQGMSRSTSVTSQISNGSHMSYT

[39] = target: TGF-beta receptor type-2 (Homo sapiens) (UniProt P37173); conditions: Compound concentration 1000.0 nM
[40] = target: NT-3 growth factor receptor (Homo sapiens) (UniProt Q16288); conditions: Compound concentration 1000.0 nM
[41] = target: Serine/threonine-protein kinase ULK3 (Homo sapiens) (UniProt Q6PHR2); conditions: Compound concentration 1000.0 nM
[42] = target: Serine/threonine-protein kinase VRK2 (Homo sapiens) (UniProt Q86Y07); conditions: Compound concentration 1000.0 nM
Serine/threonine-protein kinase VRK2 (Homo sapiens), sequence (Q86Y07 whole entry): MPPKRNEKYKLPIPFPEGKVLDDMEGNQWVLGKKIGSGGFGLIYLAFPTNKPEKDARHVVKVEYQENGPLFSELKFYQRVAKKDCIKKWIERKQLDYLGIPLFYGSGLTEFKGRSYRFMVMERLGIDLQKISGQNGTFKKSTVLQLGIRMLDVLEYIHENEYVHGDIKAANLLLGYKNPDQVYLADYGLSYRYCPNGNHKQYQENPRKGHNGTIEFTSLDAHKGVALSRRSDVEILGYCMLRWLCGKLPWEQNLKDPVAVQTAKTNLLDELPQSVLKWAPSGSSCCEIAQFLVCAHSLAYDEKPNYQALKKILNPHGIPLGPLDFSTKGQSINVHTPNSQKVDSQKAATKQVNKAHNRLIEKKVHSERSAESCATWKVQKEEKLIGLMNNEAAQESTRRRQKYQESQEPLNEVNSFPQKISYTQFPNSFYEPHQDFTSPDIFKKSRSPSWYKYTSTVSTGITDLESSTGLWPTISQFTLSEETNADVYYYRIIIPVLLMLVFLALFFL

[43] = target: D(1A) dopamine receptor (Homo sapiens) (UniProt P21728); conditions: Compound concentration 10.0 uM
[44] = target: Kappa-type opioid receptor (Homo sapiens) (UniProt P41145); conditions: Compound concentration 10.0 uM
Kappa-type opioid receptor (Homo sapiens), sequence (P41145 whole entry): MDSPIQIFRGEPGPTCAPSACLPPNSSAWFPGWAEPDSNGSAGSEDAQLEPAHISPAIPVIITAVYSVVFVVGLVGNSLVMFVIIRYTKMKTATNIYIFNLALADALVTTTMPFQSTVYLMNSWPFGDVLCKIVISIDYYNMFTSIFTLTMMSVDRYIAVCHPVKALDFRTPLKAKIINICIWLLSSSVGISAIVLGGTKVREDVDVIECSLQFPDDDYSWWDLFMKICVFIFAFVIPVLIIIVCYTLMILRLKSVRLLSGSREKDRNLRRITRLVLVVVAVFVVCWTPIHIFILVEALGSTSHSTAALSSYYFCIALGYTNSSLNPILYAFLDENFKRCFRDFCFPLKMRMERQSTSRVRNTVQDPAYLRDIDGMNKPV

Beta-1 adrenergic receptor (Homo sapiens), sequence (P08588 whole entry, looked up): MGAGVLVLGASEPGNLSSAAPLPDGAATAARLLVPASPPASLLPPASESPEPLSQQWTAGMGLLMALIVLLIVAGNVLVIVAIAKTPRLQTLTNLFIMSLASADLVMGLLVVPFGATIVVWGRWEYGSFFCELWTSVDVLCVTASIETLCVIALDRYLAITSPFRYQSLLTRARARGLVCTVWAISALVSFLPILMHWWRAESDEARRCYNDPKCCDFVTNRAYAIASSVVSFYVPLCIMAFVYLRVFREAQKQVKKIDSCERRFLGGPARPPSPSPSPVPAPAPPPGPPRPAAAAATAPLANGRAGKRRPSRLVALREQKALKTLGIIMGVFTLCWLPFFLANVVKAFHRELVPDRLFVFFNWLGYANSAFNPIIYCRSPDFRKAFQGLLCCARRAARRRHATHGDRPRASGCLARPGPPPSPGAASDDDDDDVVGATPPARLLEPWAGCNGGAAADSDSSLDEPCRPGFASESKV

**Q.** For `O=C(N1CCS(=O)(=O)CC1)N1C[C@H](c2ccc(OC(F)(F)F)cc2)C[C@H](c2nc(C3CC3)no2)C1` [BAY-386], which % Inhibition of Control Agonist Response (Mean n=2) [1] is on record?
**A.** -0.2%

**Q.** And the % of Control Agonist Response (Mean n=2) [1]?
**A.** 3.4%

**Q.** What about the residual activity [2] of the same compound?
**A.** 100%

**Q.** What about the residual activity [3] of the same compound?
**A.** 73%

**Q.** What about the residual activity [4] of the same compound?
**A.** 96%

**Q.** What about the residual activity [5] of the same compound?
**A.** 100%

**Q.** And the residual activity [6]?
**A.** 91%

**Q.** And the residual activity [7]?
**A.** 100%

**Q.** What about the residual activity [8] of the same compound?
**A.** 100%

**Q.** What about the residual activity [9] of the same compound?
**A.** 100%

**Q.** What about the residual activity [10] of the same compound?
**A.** 0%

**Q.** What about the residual activity [11] of the same compound?
**A.** 100%

**Q.** What about the residual activity [12] of the same compound?
**A.** 100%

**Q.** What about the residual activity [13] of the same compound?
**A.** 100%

**Q.** What about the residual activity [14] of the same compound?
**A.** 100%

**Q.** And the residual activity [15]?
**A.** 100%

**Q.** What about the residual activity [16] of the same compound?
**A.** 100%

**Q.** And the residual activity [17]?
**A.** 100%

**Q.** What about the residual activity [18] of the same compound?
**A.** 100%

**Q.** What about the residual activity [19] of the same compound?
**A.** 94%

**Q.** And the residual activity [20]?
**A.** 100%

**Q.** What about the residual activity [21] of the same compound?
**A.** 85%

**Q.** And the residual activity [22]?
**A.** 100%

**Q.** And the residual activity [23]?
**A.** 94%

**Q.** And the residual activity [24]?
**A.** 95%

**Q.** And the residual activity [25]?
**A.** 94%

**Q.** And the residual activity [26]?
**A.** 100%

**Q.** And the residual activity [27]?
**A.** 100%

**Q.** And the residual activity [28]?
**A.** 100%

**Q.** And the residual activity [29]?
**A.** 100%

**Q.** And the residual activity [30]?
**A.** 100%

**Q.** And the residual activity [31]?
**A.** 100%

**Q.** And the residual activity [32]?
**A.** 100%

**Q.** What about the residual activity [33] of the same compound?
**A.** 100%

**Q.** What about the residual activity [34] of the same compound?
**A.** 100%

**Q.** What about the residual activity [35] of the same compound?
**A.** 98%

**Q.** What about the residual activity [36] of the same compound?
**A.** 100%

**Q.** And the residual activity [37]?
**A.** 100%

**Q.** And the residual activity [38]?
**A.** 100%

**Q.** What about the residual activity [39] of the same compound?
**A.** 100%

**Q.** And the residual activity [40]?
**A.** 100%

**Q.** What about the residual activity [41] of the same compound?
**A.** 93%

**Q.** What about the residual activity [42] of the same compound?
**A.** 90%

**Q.** What about the inhibition [43] of the same compound?
**A.** 3.2%

**Q.** And the inhibition [44]?
**A.** 1.29%

**Q.** What does the source list for `Cc1noc([C@H]2C[C@@H](c3ccc(C(F)(F)F)cc3)CN(C(=O)N3CCS(=O)(=O)C3)C2)n1` [BAY-448]?
**A.** % Inhibition of Control Agonist Response (Mean n=2) [1]: 6.8%; % of Control Agonist Response (Mean n=2) [1]: 0.3%; residual activity [2]: 100%; residual activity [3]: 100%; residual activity [4]: 90%; residual activity [5]: 100%; residual activity [6]: 100%; residual activity [7]: 100%; residual activity [8]: 70%; residual activity [9]: 100%; residual activity [10]: 92%; residual activity [11]: 100%; residual activity [12]: 89%; residual activity [13]: 91%; residual activity [14]: 100%; residual activity [15]: 100%; residual activity [16]: 82%; residual activity [17]: 96%; residual activity [18]: 100%; residual activity [19]: 85%; residual activity [20]: 84%; residual activity [21]: 100%; residual activity [22]: 97%; residual activity [23]: 100%; residual activity [24]: 100%; residual activity [25]: 74%; residual activity [26]: 92%; residual activity [27]: 100%; residual activity [28]: 100%; residual activity [29]: 100%; residual activity [30]: 80%; residual activity [31]: 85%; residual activity [32]: 100%; residual activity [33]: 87%; residual activity [34]: 100%; residual activity [35]: 84%; residual activity [36]: 100%; residual activity [37]: 95%; residual activity [38]: 100%; residual activity [39]: 100%; residual activity [40]: 100%; residual activity [41]: 77%; residual activity [42]: 91%; inhibition [43]: 10.6%; inhibition [44]: 7.69%
